Measurements taken from the supplement of paper PMC10307832.

Key:
Experiment in all cases: relative viability (nuclei count vs DMSO), 5 days (fraction); higher = more cells survive
[1] = compound: C[C@@H](N)c1ccc(C(=O)Nc2ccnc3[nH]ccc23)cc1 + COc1cccc2cc(-c3nc([C@H]4CC[C@H](C(=O)O)CC4)n4ncnc(N)c34)[nH]c12 [OSI-027] (partner 0.5 µM)
Procedure, shortened: (§1)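 Five library-drug doses in √10 steps were combined with a fixed anchor-drug dose, or a single drug was given alone, by pin tool to lung cancer cell lines in 1536-well plates the day after seeding. Nuclei were stained and counted after 5 days. Relative viability is the nuclei count in treated wells over that in vehicle wells, taken as the median of duplicate plates.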

[2] = compound: O[C@H]1CC[C@H](Nc2ncc3nc(Nc4c(F)cc(F)cc4F)n([C@H]4CCOC4)c3n2)CC1 [Tanzisertib] + COc1cc2c(Oc3ccc(NC(=O)C4(C(=O)Nc5ccc(F)cc5)CC4)cc3F)ccnc2cc1OCCCN1CCOCC1 [Foretinib] (partner 0.25 µM)
Procedure, shortened: as §1

[3] = compound: O[C@H]1CC[C@H](Nc2ncc3nc(Nc4c(F)cc(F)cc4F)n([C@H]4CCOC4)c3n2)CC1 [Tanzisertib] + CS(=O)(=O)N1CCN(Cc2cc3nc(-c4cccc5[nH]ncc45)nc(N4CCOCC4)c3s2)CC1 [Pictilisib] (partner 1 µM)
Procedure, shortened: as §1

[4] = compound: O[C@H]1CC[C@H](Nc2ncc3nc(Nc4c(F)cc(F)cc4F)n([C@H]4CCOC4)c3n2)CC1 [Tanzisertib] + CC(=O)c1c(C)c2cnc(Nc3ccc(N4CCNCC4)cn3)nc2n(C2CCCC2)c1=O [Palbociclib] (partner 0.5 µM)
Procedure, shortened: as §1

Cell Line	relative viability ([1]; first compound 0.04 µM)	relative viability ([1]; first compound 0.1265 µM)	relative viability ([1]; first compound 0.4 µM)	relative viability ([1]; first compound 1.265 µM)	relative viability ([1]; first compound 4 µM)	relative viability ([2]; first compound 0.08 µM)	relative viability ([2]; first compound 0.253 µM)	relative viability ([2]; first compound 0.8 µM)	relative viability ([2]; first compound 2.53 µM)	relative viability ([2]; first compound 8 µM)	relative viability ([3]; first compound 0.08 µM)	relative viability ([3]; first compound 0.253 µM)	relative viability ([3]; first compound 0.8 µM)	relative viability ([3]; first compound 2.53 µM)	relative viability ([3]; first compound 8 µM)	relative viability ([4]; first compound 0.08 µM)	relative viability ([4]; first compound 0.253 µM)	relative viability ([4]; first compound 0.8 µM)	relative viability ([4]; first compound 2.53 µM)	relative viability ([4]; first compound 8 µM)
NCI-H1975	0.799	0.876	0.666	0.673	0.533	0.968	0.968	1.03	0.946	0.841	0.297	0.266	0.304	0.295	0.309	0.735	0.575	0.515	0.562	0.549
NCI-H1993	0.529	0.556	0.574	0.577	0.603	0.823	0.841	0.844	0.786	0.73	0.875	0.873	0.774	1.09	0.844	0.652	0.531	0.611	0.617	0.595
NCI-H2009	0.675	0.77	0.655	0.714	0.624	1.21	1.19	1.24	1.27	1.03	0.965	0.794	0.972	0.882	0.563	0.201	0.209	0.263	0.278	0.187
NCI-H2023	0.475	0.435	0.569	0.476	0.509	0.853	0.874	0.936	0.901	0.646	0.259	0.197	0.246	0.243	0.233	0.335	0.406	0.406	0.325	0.328
NCI-H2085	0.744	0.816	0.77	0.397	0.717	0.893	1.11	1.14	1.03	1.05	0.474	0.454	0.465	0.478	0.435		0.456	0.454	0.455	0.505
NCI-H2087	1.02	0.721	0.924		0.613	1.23	0.992	1.12	1.06	1.09	1.17	0.838	0.886	0.753	0.743	0.256	0.308	0.254	0.235	0.255
NCI-H2126	0.9	0.654	0.797		0.944	1.24	1.21	1.15	1.19	1.12	0.522	0.464	0.503	0.494	0.52	0.34	0.355	0.349	0.37	0.324
NCI-H2170	0.775	0.739	0.747	0.515	0.718	1.02	1.01	0.954	1.06	0.984	0.357	0.307	0.313	0.307	0.27	0.415	0.39	0.36	0.428	0.406
